One block for each molecule: values may come before it. Residues, ends and D or L forms follow the SMILES beside them. *: point of attachment. Cbz = O=C(OCc1ccccc1)*
Key:
[1] = biological target: T1, eGFPBCL6 stability reporter (Homo sapiens, UniProt P41182); experiment: Degradation of BCL6 reporter constructs in HEK293T cells (flow cytometry); type: cell-based; conditions: for effect on BI-3802-induced degradation of eGFPBCL6^FL: HEK293TCas9 cells, 0.5 μM MLN7243, 5 μM MLN4924 or 10 μM MG132 for 3 hours plus 1 μM BI-3802 for 1 hour
T1 construct: the full length BCL6 (BCL6^FL) was fused in-frame with eGFP; expressed in transfected cells; host or cells: HEK293TCas9 cells, lentiviral transduction (Artichoke vector)
Experimental: Lentivirus was packaged in HEK293T cells using TransIT (Mirus) and subsequently used for spin infection.
HEK293TCas9 cells expressing indicated constructs in “Artichoke” or “Cilantro2” stability reporter vectors (PGK or SFFV Target-eGFP-IRES-mCherry, puromycin resistance) were plated in 96 well plates and treated for indicated times. BCL6-eGFP and mCherry expression were quantified by flow cytometry (CytoFLEX, Beckman or LSR Fortessa flow cytometer BD Biosciences). All degradation assays were done in at least triplicates. Geometric means of eGFP and mCherry fluorescent signals for live and mCherry positive cells were exported using flow cytometry analysis software (FlowJo, BD). Ratios of eGFP to mCherry were normalized to the average of DMSO-treated controls.

SuDHL4Cas9 cells = experiment: Whole proteome quantification using tandem mass tag mass spectrometry; type: cell-based, human; conditions: SuDHL4 cells, 1 μM compound, 4 hours
Experimental: 10×10^6 SuDHL4Cas9 cells were treated with DMSO, 1 μM BI-3802 or 1 μM BI-3812 for 1 h or 4 h in triplicates and cells were harvested by centrifugation. Samples were processed, measured and analyzed as previously described (Donovan, K. A. et al. Thalidomide promotes degradation of SALL4, a transcription factor implicated in Duane Radial Ray syndrome. Ehfe 7, doi:10.7554/eLife.38430 (2018)). Data are available in the PRIDE repository (PXD016185).

[2] = biological target: T2, BCL6-eGFP fusion construct (Homo sapiens, UniProt P41182); experiment: Live cell imaging of BCL6-eGFP foci in HEK293T cells; type: cell-based; conditions: eGFPBCL6^1-250, 10 μM BI-3812 added 75 minutes after 1 μM BI-3802
T2 construct: expressed in transfected cells; host or cells: HEK293TCas9 cells, lentiviral transduction (Cilantro2 vector)
Experimental: 1×10^3 HEK293T cells per cm^2 were seeded in a μ-Slide 8 Well chamber (ibidi) and cultured for 18-24 h under standard growth conditions. Cell culture medium was exchanged to CO2 independent media (Gibco) and imaged with the DeltaVision Ultra High-Resolution Microscope (GE Healthcare, 100×lens, oil refraction index=1.520). The following acquisition parameters were used: Image size […], binning 1×1, GFP exposure time 0.08 sec. and the Neutral Density (% T) filter 32%. To capture foci within all cell volume, around 26μm per cell was imaged every 0.4-0.5 μm. Images were deconvolved (10 cycles, conservative conditions) and projected using maximal intensity by softWoRx® 7.0.0. Images for movies were taken every 10 minutes and combined to a movie by QuickTime.

BCL6^5-360 - SIAH1^SBD = biological target: T3, BCL6^5-360 - SIAH1^SBD (Homo sapiens, UniProt P41182); experiment: BCL6-SIAH1 TR-FRET; type: biochemical; conditions: in vitro, increasing compound concentration
T3 construct: 200 nM BodipyFL-labeled BCL6^5-360 variants; His6 (N); Spy (C); made in house; host or cells: Trichoplusia ni High Five insect cells, baculovirus
Experimental: After dispensing the assay mixture (15 μL volume), increasing concentrations of compounds were dispensed in a 384-well microplate (Corning, 4514) using a D300e Digital Dispenser (HP) normalized to 1% DMSO. After excitation of terbium fluorescence at 337 nm, emission at 490 nm (terbium) and 520 nm (BodipyFL) were recorded with a 70 us delay over 600 μs to reduce background fluorescence, and the reaction was followed over 60 cycles of each data point using a PHERAstar FS microplate reader (BMG Labtech). The TR-FRET signal of each data point was extracted by calculating the 520/490 nm ratio. The half-maximal effective concentration (EC50) values were estimated using dose-response analysis standard four parameter log-logistic curves, fitted to the experimental data using […] package. […] After dispensing the assay mixture, increasing concentration of BodipyFL-BCL6^5-360 was added to the SIAH1 mixture in a […] (7.5 μL each, total 15 μL assay volume). The 520/490 nm ratios were measured in as described above and plotted to calculate the KD^APP values using dose-response analysis standard four parameter log-logistic curves using […] package.

BCL6^5-129 = biological target: T4, BCL6^5-129 (Homo sapiens, UniProt P41182); experiment: BCL6-BCoR TR-FRET (compound binding assay); conditions: 0.1 μM FITCBCoR polypeptide, 0.1 μM BiotinBCL6^5-129
T4 construct: mixing 100 nM biotinylated BCL6^5-129, 100 nM N-terminal FITC-labeled BCoR peptide; made in house; host or cells: Trichoplusia ni High Five insect cells, baculovirus
Experimental: Competitive titration of BI-3802 or BI-3812 were carried out by mixing 100 nM biotinylated BCL6^5-129, 100 nM N-terminal FITC-labeled BCoR peptide (sequence: […]), and 2 nM terbium-coupled streptavidin in the same assay buffer. After dispensing the assay mixture (15 μL volume), increasing concentrations of compounds were dispensed in a 384-well microplate (Corning, 4514) using a D300e Digital Dispenser (HP) normalized to 1% DMSO. The 520/490 nm ratios were measured as described above and plotted to calculate the KD^APP values using dose-response analysis standard four parameter log-logistic curves using the dr4pl R package.

effect on BI-3802-induced degradation of eGFPBCL6^FL [1]: attenuated
Structure (SMILES): NS(=O)(=O)OC[C@H]1C[C@@H](Nc2ccnc3cc(-c4cccc(SC(F)(F)F)c4)nn23)[C@H](O)[C@@H]1O [MLN7243]

Structure (SMILES): NS(=O)(=O)OC[C@@H]1C[C@@H](n2ccc3c(N[C@H]4CCc5ccccc54)ncnc32)C[C@@H]1O [MLN4924]
effect on BI-3802-induced degradation of eGFPBCL6^FL [1]: not by inhibition of the neddylation pathway with MLN4924

degradation of full-length BCL6 reporter (eGFPBCL6^FL) ([1]; HEK293T cells, 1 μM, 1 hour): did not alter stability of the reporter | reversal of BI-3802-induced foci [2]: fully reversible | affinity of compound to BCL6 (BCoR peptide competition) (BCL6^5-129): comparable affinity
Structure (SMILES): CNC(=O)COc1cc2cc(Nc3nc(N4CCC(C(=O)N(C)C)CC4)ncc3Cl)cc(OC)c2n(C)c1=O [BI-3812, 1-(5-chloro-4-((8-methoxy-1-methyl-3-(2-(methylamino)-2-oxoethoxy)-2-oxo-1,2-dihydroquinolin-6-yl)amino)pyrimidin-2-yl)-N,N-dimethylpiperidine-4-carboxamide]
change in polypeptide abundance (whole proteome) (SuDHL4Cas9 cells): did not alter the abundance of any polypeptide | block of BI-3802-induced BCL6 degradation ([1]; HEK293T cells expressing eGFPBCL6^1-275, simultaneous BI-3802 and excess BI-3812, 24 hours): efficiently blocked BI-3802-induced BCL6 degradation | effect on the BCL6-SIAH1 interaction (TR-FRET) (BCL6^5-360 - SIAH1^SBD): did not influence the BCL6-SIAH1 interaction

Structure (SMILES): CC(C)C[C@@H](C=O)NC(=O)[C@H](CC(C)C)NC(=O)[C@H](CC(C)C)NC(=O)OCc1ccccc1 [MG132] (Cbz-Leu-Leu-Leu-aldehyde)
effect on BI-3802-induced degradation of eGFPBCL6^FL [1]: attenuated
